Source: patent publication US11311522B1 (Cavion, Inc., priority 2018, dated 2022)

Assay: PN001/Part I: safety and tolerability
Type: in vivo, human
Description: Safety was monitored throughout by adverse events, vital signs, and repeated clinical and laboratory evaluations. […] All adverse events were mild or moderate and severity and transient.

In the case of `CC(C)c1ccc(CC(=O)N[C@H](C)c2ccc(OCC(F)(F)F)cn2)cc1` [CX-8998], the Abnormal physical sensation (12 mg) is reported as 0 n (%), the “At least 1 adverse event” value (12 mg) is reported as 9 (75.0) n (%) and the Dizziness (12 mg) is reported as 1 (8.3) n (%). For the same molecule, the Drowsiness (12 mg) was 1 (8.3) n (%), the Elevated mood (12 mg) was 1 (8.3) n (%) and the Euphoric mood (12 mg) was 2 (16.7) n (%). The “Eye Disorders” value (12 mg) was 1 (8.3) n (%), the Fatigue (12 mg) was 0 n (%) and the Feeling abnormal (12 mg) was 2 (16.7) n (%). The Floating feeling (12 mg) was 0 n (%), the “Gastro-intestinal Disorders” value (12 mg) was 3 (25.0) n (%) and the Hangover effect (12 mg) was 0 n (%). The Headache (12 mg) was 2 (16.7) n (%), the Indifference (12 mg) was 0 n (%) and the “Injury, Poisoning and Procedural Complications” value (12 mg) was 0 n (%). For the same molecule, the Insomnia (12 mg) was 0 n (%), the Intoxication (12 mg) was 0 n (%) and the Irritability (12 mg) was 0 n (%). The Lethargy (12 mg) was 1 (8.3) n (%), the “Nervous System Disorders” value (12 mg) was 5 (41.7) n (%) and the Paraesthesia (12 mg) was 0 n (%). For the same molecule, the Paraesthesia oral (12 mg) was 1 (8.3) n (%), the Paraesthesia tongue (12 mg) was 2 (16.7) n (%) and the “Psychiatric Disorders” value (12 mg) was 4 (33.3) n (%). For the same molecule, the Racing thoughts (12 mg) was 1 (8.3) n (%), the Relaxed (12 mg) was 4 (33.3) n (%) and the Sensory disturbance (12 mg) was 0 n (%). The Vision blurred (12 mg) was 0 n (%), the Visual disturbance (12 mg) was 1 (8.3) n (%) and the Vivid dreams (12 mg) was 0 n (%). For the same molecule, the Abnormal physical sensation (12 mg evening) was 0 n (%), the “At least 1 adverse event” value (12 mg evening) was 4 (66.7) n (%) and the Dizziness (12 mg evening) was 0 n (%). For the same molecule, the Drowsiness (12 mg evening) was 1 (16.7) n (%), the Elevated mood (12 mg evening) was 0 n (%) and the Euphoric mood (12 mg evening) was 0 n (%). For the same molecule, the “Eye Disorders” value (12 mg evening) was 3 (50.0) n (%), the Fatigue (12 mg evening) was 0 n (%) and the Feeling abnormal (12 mg evening) was 0 n (%). The Floating feeling (12 mg evening) was 0 n (%), the “Gastro-intestinal Disorders” value (12 mg evening) was 1 (16.7) n (%) and the Hangover effect (12 mg evening) was 0 n (%). For the same molecule, the Headache (12 mg evening) was 1 (16.7) n (%), the Indifference (12 mg evening) was 0 n (%) and the “Injury, Poisoning and Procedural Complications” value (12 mg evening) was 0 n (%). For the same molecule, the Insomnia (12 mg evening) was 0 n (%), the Intoxication (12 mg evening) was 0 n (%) and the Irritability (12 mg evening) was 0 n (%). For the same molecule, the Lethargy (12 mg evening) was 1 (16.7) n (%), the “Nervous System Disorders” value (12 mg evening) was 3 (50.0) n (%) and the Paraesthesia (12 mg evening) was 0 n (%). For the same molecule, the Paraesthesia oral (12 mg evening) was 0 n (%), the Paraesthesia tongue (12 mg evening) was 1 (16.7) n (%) and the “Psychiatric Disorders” value (12 mg evening) was 2 n (%). The Racing thoughts (12 mg evening) was 0 n (%), the Relaxed (12 mg evening) was 0 n (%) and the Sensory disturbance (12 mg evening) was 0 n (%). For the same molecule, the Vision blurred (12 mg evening) was 0 n (%), the Visual disturbance (12 mg evening) was 3 (50.0) n (%) and the Vivid dreams (12 mg evening) was 2 n (%). The Abnormal physical sensation (16 mg evening) was 0 n (%), the “At least 1 adverse event” value (16 mg evening) was 9 (75.0) n (%) and the Dizziness (16 mg evening) was 1 (8.3) n (%). For the same molecule, the Drowsiness (16 mg evening) was 1 (8.3) n (%), the Elevated mood (16 mg evening) was 3 (25.0) n (%) and the Euphoric mood (16 mg evening) was 3 (25.0) n (%). The “Eye Disorders” value (16 mg evening) was 1 (8.3) n (%), the Fatigue (16 mg evening) was 2 (16.7) n (%) and the Feeling abnormal (16 mg evening) was 0 n (%). The Floating feeling (16 mg evening) was 1 (8.3) n (%), the “Gastro-intestinal Disorders” value (16 mg evening) was 1 (8.3) n (%) and the Hangover effect (16 mg evening) was 2 (16.7) n (%). The Headache (16 mg evening) was 4 (33.3) n (%), the Indifference (16 mg evening) was 2 (16.7) n (%) and the “Injury, Poisoning and Procedural Complications” value (16 mg evening) was 0 n (%). For the same molecule, the Insomnia (16 mg evening) was 0 n (%), the Intoxication (16 mg evening) was 0 n (%) and the Irritability (16 mg evening) was 1 (8.3) n (%). For the same molecule, the Lethargy (16 mg evening) was 1 (8.3) n (%), the “Nervous System Disorders” value (16 mg evening) was 8 (66.7) n (%) and the Paraesthesia (16 mg evening) was 1 (8.3) n (%). The Paraesthesia oral (16 mg evening) was 0 n (%), the Paraesthesia tongue (16 mg evening) was 0 n (%) and the “Psychiatric Disorders” value (16 mg evening) was 8 (66.7) n (%). The Racing thoughts (16 mg evening) was 2 (16.7) n (%), the Relaxed (16 mg evening) was 2 (16.7) n (%) and the Sensory disturbance (16 mg evening) was 1 (8.3) n (%). The Vision blurred (16 mg evening) was 1 (8.3) n (%), the Visual disturbance (16 mg evening) was 0 n (%) and the Vivid dreams (16 mg evening) was 8 (66.7) n (%). For the same molecule, the Abnormal physical sensation (20 mg evening) was 1 (16.7) n (%), the “At least 1 adverse event” value (20 mg evening) was 6 (100) n (%) and the Dizziness (20 mg evening) was 0 n (%). The Drowsiness (20 mg evening) was 2 (33.3) n (%), the Elevated mood (20 mg evening) was 1 (16.7) n (%) and the Euphoric mood (20 mg evening) was 3 (50.0) n (%). For the same molecule, the “Eye Disorders” value (20 mg evening) was 1 (16.7) n (%), the Fatigue (20 mg evening) was 0 n (%) and the Feeling abnormal (20 mg evening) was 0 n (%). For the same molecule, the Floating feeling (20 mg evening) was 0 n (%), the “Gastro-intestinal Disorders” value (20 mg evening) was 0 n (%) and the Hangover effect (20 mg evening) was 0 n (%). The Headache (20 mg evening) was 5 (83.3) n (%), the Indifference (20 mg evening) was 0 n (%) and the “Injury, Poisoning and Procedural Complications” value (20 mg evening) was 2 (33.3) n (%). For the same molecule, the Insomnia (20 mg evening) was 1 (16.7) n (%), the Intoxication (20 mg evening) was 2 (33.3) n (%) and the Irritability (20 mg evening) was 1 (16.7) n (%). For the same molecule, the Lethargy (20 mg evening) was 2 (33.3) n (%), the “Nervous System Disorders” value (20 mg evening) was 6 (100) n (%) and the Paraesthesia (20 mg evening) was 1 (16.7) n (%). For the same molecule, the Paraesthesia oral (20 mg evening) was 0 n (%), the Paraesthesia tongue (20 mg evening) was 0 n (%) and the “Psychiatric Disorders” value (20 mg evening) was 5 (83.3) n (%). The Racing thoughts (20 mg evening) was 0 n (%), the Relaxed (20 mg evening) was 4 (66.7) n (%) and the Sensory disturbance (20 mg evening) was 2 (33.3) n (%). For the same molecule, the Vision blurred (20 mg evening) was 1 (16.7) n (%), the Visual disturbance (20 mg evening) was 0 n (%) and the Vivid dreams (20 mg evening) was 2 (33.3) n (%). The Abnormal physical sensation (24 mg evening) was 0 n (%), the “At least 1 adverse event” value (24 mg evening) was 6 (100) n (%) and the Dizziness (24 mg evening) was 1 (16.7) n (%). The Drowsiness (24 mg evening) was 3 (50.0) n (%), the Elevated mood (24 mg evening) was 0 n (%) and the Euphoric mood (24 mg evening) was 1 (16.7) n (%). For the same molecule, the “Eye Disorders” value (24 mg evening) was 2 (33.3) n (%), the Fatigue (24 mg evening) was 0 n (%) and the Feeling abnormal (24 mg evening) was 1 (16.7) n (%). For the same molecule, the Floating feeling (24 mg evening) was 1 (16.7) n (%), the “Gastro-intestinal Disorders” value (24 mg evening) was 0 n (%) and the Hangover effect (24 mg evening) was 0 n (%). For the same molecule, the Headache (24 mg evening) was 6 (100) n (%), the Indifference (24 mg evening) was 0 n (%) and the “Injury, Poisoning and Procedural Complications” value (24 mg evening) was 0 n (%). For the same molecule, the Insomnia (24 mg evening) was 1 (16.7) n (%), the Intoxication (24 mg evening) was 0 n (%) and the Irritability (24 mg evening) was 0 n (%). For the same molecule, the Lethargy (24 mg evening) was 1 (16.7) n (%), the “Nervous System Disorders” value (24 mg evening) was 6 (100) n (%) and the Paraesthesia (24 mg evening) was 1 (16.7) n (%). For the same molecule, the Paraesthesia oral (24 mg evening) was 0 n (%), the Paraesthesia tongue (24 mg evening) was 0 n (%) and the “Psychiatric Disorders” value (24 mg evening) was 4 (66.7) n (%). For the same molecule, the Racing thoughts (24 mg evening) was 1 (16.7) n (%), the Relaxed (24 mg evening) was 0 n (%) and the Sensory disturbance (24 mg evening) was 0 n (%). For the same molecule, the Vision blurred (24 mg evening) was 1 (16.7) n (%), the Visual disturbance (24 mg evening) was 0 n (%) and the Vivid dreams (24 mg evening) was 2 (33.3) n (%). For the same molecule, the Abnormal physical sensation (any dose) was 2 (9.1) n (%), the “At least 1 adverse event” value (any dose) was 19 (86.4) n (%) and the Dizziness (any dose) was 2 (9.1) n (%). The Drowsiness (any dose) was 7 (31.8) n (%), the Elevated mood (any dose) was 6 (27.3) n (%) and the Euphoric mood (any dose) was 8 (36.4) n (%). The “Eye Disorders” value (any dose) was 9 (40.9) n (%), the Fatigue (any dose) was 2 (9.1) n (%) and the Feeling abnormal (any dose) was 4 (18.2) n (%). For the same molecule, the Floating feeling (any dose) was 2 (9.1) n (%), the “Gastro-intestinal Disorders” value (any dose) was 4 (18.2) n (%) and the Hangover effect (any dose) was 2 (9.1) n (%). The Headache (any dose) was 10 (45.5) n (%), the Indifference (any dose) was 2 (9.1) n (%) and the “Injury, Poisoning and Procedural Complications” value (any dose) was 2 (9.1) n (%). For the same molecule, the Insomnia (any dose) was 2 (9.1) n (%), the Intoxication (any dose) was 2 (9.1) n (%) and the Irritability (any dose) was 2 (9.1) n (%). For the same molecule, the Lethargy (any dose) was 3 (13.6) n (%), the “Nervous System Disorders” value (any dose) was 16 (72.7) n (%) and the Paraesthesia (any dose) was 2 (9.1) n (%). For the same molecule, the Paraesthesia oral (any dose) was 2 (9.1) n (%), the Paraesthesia tongue (any dose) was 2 (9.1) n (%) and the “Psychiatric Disorders” value (any dose) was 15 (68.2) n (%). The Racing thoughts (any dose) was 4 (18.2) n (%), the Relaxed (any dose) was 9 (40.9) n (%) and the Sensory disturbance (any dose) was 3 (13.6) n (%). The Vision blurred (any dose) was 4 (18.2) n (%), the Visual disturbance (any dose) was 4 (18.2) n (%) and the Vivid dreams (any dose) was 11 (50.0) n (%). The Tolerability (single doses) was “Single doses up to 16 mg were generally well tolerated”.
